Measurements: US12390425B1, “Use of tyrosol as a physiological enhancer of creatine and its application in continuous high intensity exercise” (MolTek Nutrition Co., Ltd, priority 2024, dated 2025)

Experiments:
Format in all cases: in vivo
mice [1] = assay: Grip strength test during continuous high-intensity exercise (Experiment 2); conditions: for Percentage change of muscle strength (grip strength relative to first exercise): gavage daily 4 weeks: Ty 75 mg/kg tyrosol, CR 260 mg/kg creatine monohydrate, Ty+CR 75 mg/kg+260 mg/kg
Protocol: Animal Experiment 1: Six-week-old mice were used. After one week of acclimation to the environment, the mice were randomly divided into the following groups:
(§1) Control Group: Normal diet, serving as the control group.
(§2) Ty Group: Normal diet, with 75 mg/kg tyrosol administered by gavage daily.
(§3) CR Group: Normal diet, with 260 mg/kg creatine monohydrate administered by gavage daily.
(§4) Ty+CR Group: Normal diet, with 75 mg/kg tyrosol+260 mg/kg creatine monohydrate administered by gavage daily.
(§5) This regimen continued for 4 weeks. The first grip strength test was conducted 30 minutes after the last gavage. The grip strength of the mice's limbs was measured using a grip strength meter. After a 1-hour rest, the mice underwent the first exhaustive swimming exercise. […] The mice were then placed in a weighted swimming tank at a water temperature of 30±1° C. for the exhaustive swimming test. Exhaustion was considered if the mice touched the bottom of the tank three consecutive times within 30 seconds. The detector recorded the mice's bottom-touching instances, and upon determining exhaustion, the swimming tank automatically lifted the mice, recording the exhaustive swimming time.
(§6) 24 hours after the first swimming exercise, the second grip strength test and exhaustive swimming exercise were conducted using the same methods, recording grip strength data and exhaustive swimming time. The third and fourth grip strength tests and exhaustive swimming exercises were conducted 24 hours after the previous exercise, recording the respective data. The gavage regimen remained unchanged during the intervals.
Note: The data compared each group's grip strength in subsequent exercises to their grip strength in the first exercise, reflected the difference in grip strength from the initial value.

mice [2] = assay: Weighted exhaustive swimming test during continuous high-intensity exercise (Experiment 2); conditions: for Percentage change of exhaustive exercise time (relative to first exercise): gavage daily 4 weeks: Ty 75 mg/kg tyrosol, CR 260 mg/kg creatine monohydrate, Ty+CR 75 mg/kg+260 mg/kg; for Exhaustive swimming exercise time compared to control group, FIG. 2 / Trend of exhaustive swimming exercise time during continuous exercise, FIG. 2: Ty 75 mg/kg, CR 260 mg/kg, Ty+CR 75+260 mg/kg; for Exhaustive swimming exercise time compared to control group, FIG. 2: 4 weeks; for Trend of exhaustive swimming exercise time during continuous exercise, FIG. 2: four exercises 24 h apart
Protocol: After one week of acclimation to the environment, the mice were randomly divided into the following groups:
as §1, §2, §3, §4, §5, §6
Note: The data compared each group's exhaustive exercise time in subsequent exercises to their exhaustive exercise time in the first exercise, reflected the difference in exhaustive exercise time from the initial value.

mice [3] = assay: Grip strength test during continuous high-intensity exercise (Experiment 2); conditions: first grip strength test; Ty 75 mg/kg, CR 260 mg/kg, Ty+CR 75+260 mg/kg, 4 weeks
skeletal muscle of mice = assay: Phosphocreatine and creatine levels in dissected leg skeletal muscle after continuous interval electrical stimulation (Experiment 1); conditions: for Creatine (CR) level in skeletal muscle / Phosphocreatine (PCr) level in skeletal muscle / Total creatine (TCr) level in skeletal muscle: 2 weeks diet: CR 5% creatine monohydrate, Ty+CR 1% tyrosol and 5% creatine monohydrate, mean±SE; for Total creatine (TCr) level in skeletal muscle: sum of PCr and CR
Protocol: Animal Experiment: Thirty 8-week-old mice were prepared and acclimated to the laboratory environment for one week before being randomly divided into three groups. Control Group: Normal diet with no added active ingredients, serving as the control group. CR Group: Normal diet supplemented with 5% creatine monohydrate. Ty+CR Group: Normal diet supplemented with 1% tyrosol and 5% creatine monohydrate.
After two weeks of feeding, the mice were anesthetized, and the leg skeletal muscles were dissected, showing clear connective tissue without blood. For muscle contraction tests via electrical stimulation, the muscles were first incubated in a specific physiological buffer solution for 10 minutes to recover from dissection. The muscles were then clamped with aluminum forceps and stimulated using platinum electrodes and a capacitor alternating polarity discharge.
The muscles were subjected to 250 ms electrical stimulation with six intervals, each interval progressively shortened from 4 s to 1 s. After six interval stimulations, a 1-minute observation period followed before the next round, totaling four rounds. The left and right leg muscles of each mouse were labeled, and subjected to the aforementioned electrical stimulation test.
Phosphocreatine (PCr) and creatine (CR) levels were immediately measured in the dissected right leg muscles after the electrical stimulation test. The dissected left leg muscles of all groups were measured for phosphocreatine and creatine levels 5 minutes after the test. Total creatine (TCr) levels were the sum of phosphocreatine and creatine levels. Standard fluorescence assay was used to determine phosphocreatine and creatine levels in muscle samples extracted with perchloric acid precipitation.
Note: Values are expressed as mean±SE, in mmol/kg dry weight.

mice [4] = assay: Grip strength test during continuous high-intensity exercise (Experiment 3)
Protocol: (§7) Animal Experiment 2: Six-week-old mice were used. After one week of acclimation to the environment, the mice were randomly divided into the following groups:
as §1
(§8) Ty 1 Group: Normal diet, with 2.6 mg/kg tyrosol administered by gavage daily.
(§9) CR 1-3 Groups: Normal diet, with 65 mg/kg, 390 mg/kg, and 1300 mg/kg creatine monohydrate administered by gavage daily.
(§10) Ty+CR 1-4 Groups: Normal diet, with 2.6 mg/kg tyrosol+65 mg/kg creatine monohydrate, 130 mg/kg tyrosol+130 mg/kg creatine monohydrate, 390 mg/kg tyrosol+1300 mg/kg creatine monohydrate, and 2.6 mg/kg tyrosol+1300 mg/kg creatine monohydrate administered by gavage daily.
With the exception of groups Ty 1, CR 1, and Ty+CR 1 which were fed for 8 weeks, all other dosing groups were fed for 4 weeks, with one daily gavage. Groups CR 3, Ty+CR 3, and Ty+CR 4 received their daily gavage dose in two separate administrations each day. Half of the control group was fed for 4 weeks, and the other half for 8 weeks. The first grip strength test was conducted 30 minutes after the last gavage, followed by the first exhaustive swimming exercise after a 1-hour rest. Grip strength and swimming exercise methods were the same as previously described. 24 hours after the first swimming exercise, the second grip strength test and exhaustive swimming exercise were conducted using the same methods, recording grip strength data and exhaustive swimming time. The third and fourth grip strength tests and exhaustive swimming exercises were conducted 24 hours after the previous exhaustive swimming exercise, recording grip strength data and exhaustive swimming time. Groups CR 3 and Ty+CR 4 underwent up to the eighth grip strength test and exhaustive swimming exercise, maintaining the same exercise methods. During the intervals, the gavage regimen for each group remained unchanged.

mice [5] = assay: Weighted exhaustive swimming test during continuous high-intensity exercise (Experiment 3)
Protocol: as §7, §1, §8, §9, §10
With the exception of groups Ty 1, CR 1, and Ty+CR 1 which were fed for 8 weeks, all other dosing groups were fed for 4 weeks, with one daily gavage. Groups CR 3, Ty+CR 3, and Ty+CR 4 received their daily gavage dose in two separate administrations each day. Half of the control group was fed for 4 weeks, and the other half for 8 weeks. The first grip strength test was conducted 30 minutes after the last gavage, followed by the first exhaustive swimming exercise after a 1-hour rest. Grip strength and swimming exercise methods were the same as previously described. […]

[6] = 5 min later after electrical stimulation
[7] = immediately after electrical stimulation
[8] = CR 1: 65 mg/kg creatine monohydrate, Ty+CR 1: 2.6 mg/kg tyrosol+65 mg/kg creatine monohydrate, 8 weeks

SMILES	Percentage change of muscle strength (grip strength relative to first exercise) (mice [1]; First exercise)	Percentage change of muscle strength (grip strength relative to first exercise) (mice [1]; Fourth exercise) [%]	Percentage change of muscle strength (grip strength relative to first exercise) (mice [1]; Second exercise) [%]	Percentage change of muscle strength (grip strength relative to first exercise) (mice [1]; Third exercise) [%]	Percentage change of exhaustive exercise time (relative to first exercise) (mice [2]; Fourth exercise) [%]	Percentage change of exhaustive exercise time (relative to first exercise) (mice [2]; Second exercise) [%]	Percentage change of exhaustive exercise time (relative to first exercise) (mice [2]; Third exercise) [%]	Exhaustive swimming exercise time compared to control group, FIG. 2 (mice [2])	Trend of exhaustive swimming exercise time during continuous exercise, FIG. 2 (mice [2])	Muscle strength (grip strength) compared to control group, FIG. 1 (mice [3])	also measured
OCCc1ccc(O)cc1 [Ty, tyrosol]	1	85.05	97.40	96.55	88.45	97.13	94.54	significantly higher than that of the control group mice	declined to varying degrees	did not show a significant increase in muscle strength	
CN(CC(=O)O)C(=N)N.O [CR, creatine monohydrate]	1	76.10	89.24	83.81	81.88	95.26	88.10	did not improve the endurance of the mice at the beginning	declined to varying degrees	significantly increased compared to the control group	Creatine (CR) level in skeletal muscle (skeletal muscle of mice; [6]): 22.7 ± 2.8 mmol/kg dry weight; Phosphocreatine (PCr) level in skeletal muscle (skeletal muscle of mice; [6]): 39.7 ± 2.2 mmol/kg dry weight; Total creatine (TCr) level in skeletal muscle (skeletal muscle of mice; [6]): 62.4 ± 3.0 mmol/kg dry weight; Decrease of creatine levels 5 minutes after end of muscle contraction (creatine conversion) (skeletal muscle of mice; immediate vs 5-min-later data within each group): 53.86%; Creatine (CR) level in skeletal muscle (skeletal muscle of mice; [7]): 49.2 ± 3.7 mmol/kg dry weight; Phosphocreatine (PCr) level in skeletal muscle (skeletal muscle of mice; [7]): 13.4 ± 1.2 mmol/kg dry weight; Total creatine (TCr) level in skeletal muscle (skeletal muscle of mice; [7]): 62.6 ± 4.0 mmol/kg dry weight; Levels of creatine, phosphocreatine and total creatine compared to control group (skeletal muscle of mice; immediately after stimulation or 5 minutes later): higher than those in the control group; Trend of muscle strength (grip strength) in subsequent exercises, FIG. 1 (mice [1]; four exercises 24 h apart, CR 260 mg/kg, Ty+CR 75+260 mg/kg): decline rate in the creatine group was also rapid; Percentage change of exhaustive exercise time (relative to first exercise) (mice [2]; First exercise): 1; Muscle strength (grip strength) compared to control group, FIG. 4 (mice [4]; [8]): significantly increased the muscle strength of the mice; Muscle strength (grip strength) compared to control group, FIG. 3 (mice [4]; CR 2: 390 mg/kg creatine monohydrate, Ty+CR 2: 130 mg/kg tyrosol+130 mg/kg creatine monohydrate, 4 weeks): significantly higher than that in the control group; Trend of muscle strength (grip strength) during continuous exercise, FIG. 3 (mice [4]; CR 2: 390 mg/kg creatine monohydrate, Ty+CR 2: 130 mg/kg tyrosol+130 mg/kg creatine monohydrate, four exercises): marked decline in muscle strength; Endurance time (exhaustive swimming) compared to control group, FIG. 6 (mice [5]; [8]): did not improve the endurance time of mice; Endurance (exhaustive swimming time), FIG. 5 (mice [5]; CR 2: 390 mg/kg creatine monohydrate, 4 weeks): able to enhance the endurance of mice and prolong exercise time
